Blank lines part the entries; values can stand above or below the molecule they belong to. Where a SMILES comes first, the peptide text is derived from it. Bridges are numbered along the chain shown (N, C = ends). [ ]: non-standard residue; d: D form. NMeY = CN[C@@H](Cc1ccc(O)cc1)C(=O)O; R8 = C=CCCCCCC[C@@](C)(N)C(=O)O; S5 = C=CCCC[C@](C)(N)C(=O)O; Nle = CCCC[C@H](N)C(=O)O; Aib = CC(C)(N)C(=O)O
Target: T1, human GHRH receptor (hGHRHR) (Homo sapiens, UniProt Q02643)
T1 construct: expressed in transfected cells; host or cells: Human 293 cells
T1 sequence (Q02643 23-423): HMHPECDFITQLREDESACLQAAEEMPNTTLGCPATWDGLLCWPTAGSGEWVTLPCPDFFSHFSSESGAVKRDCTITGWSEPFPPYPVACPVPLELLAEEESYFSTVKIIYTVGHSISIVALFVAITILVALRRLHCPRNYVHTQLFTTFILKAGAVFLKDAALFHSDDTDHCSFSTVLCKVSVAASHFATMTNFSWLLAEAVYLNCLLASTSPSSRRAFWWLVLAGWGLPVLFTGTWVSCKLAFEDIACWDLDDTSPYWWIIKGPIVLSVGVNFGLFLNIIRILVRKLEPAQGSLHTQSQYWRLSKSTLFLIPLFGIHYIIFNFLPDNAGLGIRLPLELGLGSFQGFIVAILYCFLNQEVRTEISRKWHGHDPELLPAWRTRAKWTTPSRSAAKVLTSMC
Test: GHRHR agonism measured by cAMP (HTRF) in human 293 cells expressing hGHRHR;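 also: receptor expressed transiently or stably, cells stimulated in serum-free medium, EC50 from a non-linear dose-response fit, maximal response defined by reference GHRH stimulation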
Assay type: cell-based
Details: 30 min at RT
Protocol: GHRH (1-29) and cross-linked peptidomimetic macrocycles were tested for agonism at the human GHRH receptor (hGHRHR) at various concentrations. Human 293 cells transiently or stably expressing hGHRHR were detached from cell culture flasks with versene (Life Technologies™), suspended in serum-free medium (50 k cells/assay point), and stimulated for 30 min at RT with GHRH (1-29) (Bachem™) or cross-linked peptidomimetic macrocycles. cAMP was quantified using an HTRF®-based assay (CisBio) and used according to the manufacturer's instructions. An EC50 for each agonist was calculated from a non-linear fit of response vs dose (GraphPad™ Prism). The maximum response was determined by stimulating with 10 μM GHRH (1-29). (+=>50 nm; ++=>25-50 nm; +++=>10-25 nm; ++++=>1-10 nm; +++++=≤1 nm).

EC50: 1 to 10 nM
SMILES: CCCC[C@H](NC(=O)[C@@H](NC(=O)[C@H](CC(=O)O)NC(=O)[C@H](CCC(N)=O)NC(=O)[C@H](CC(C)C)NC(=O)C(C)(C)NC(=O)[C@H](CCCCN)NC(=O)[C@H](CCCNC(=N)N)NC(=O)[C@H](C)NC(=O)[C@H](CO)NC(=O)[C@H](CC(C)C)NC(=O)[C@H](CCC(N)=O)NC(=O)[C@H](C)NC(=O)[C@H](CC(C)C)NC(=O)[C@@H](NC(=O)[C@H](CCCCN)NC(=O)[C@H](CCCNC(=N)N)NC(=O)[C@H](Cc1ccc(O)cc1)NC(=O)[C@H](CO)NC(=O)C(C)(C)NC(=O)[C@@H](NC(=O)[C@H](Cc1ccccc1)NC(=O)[C@@H](NC(=O)[C@H](C)NC(=O)[C@H](CC(=O)O)NC(=O)[C@H](C)NC(=O)[C@H](Cc1ccc(O)cc1)NC)[C@@H](C)CC)[C@@H](C)O)C(C)C)[C@@H](C)CC)C(=O)N[C@@H](CO)C(=O)N[C@@H](CCCNC(=N)N)C(N)=O [SP-52] (H-[NMeY]ADAIFT[Aib]SYRKVLAQLSARK[Aib]LQDI[Nle]SR-NH2)

EC50: 25 to 50 nM
SMILES: CCCC[C@H](NC(=O)[C@H](C)NC(=O)[C@H](CC(=O)O)NC(=O)[C@H](CCC(N)=O)NC(=O)[C@H](CC(C)C)NC(=O)[C@H](C)NC(=O)[C@H](CCCCN)NC(=O)[C@H](CCCNC(=N)N)NC(=O)[C@]1(C)CCCC=CCCCCCC[C@@](C)(NC(=O)[C@H](CCCNC(=N)N)NC(=O)[C@H](Cc2ccc(O)cc2)NC(=O)[C@H](CO)NC(=O)[C@H](C)NC(=O)[C@@H](NC(=O)[C@H](Cc2ccccc2)NC(=O)[C@@H](NC(=O)[C@H](C)NC(=O)[C@H](CC(=O)O)NC(=O)[C@H](C)NC(=O)[C@H](Cc2ccc(O)cc2)NC)[C@@H](C)CC)[C@@H](C)O)C(=O)N[C@@H](C(C)C)C(=O)N[C@@H](CC(C)C)C(=O)N[C@@H](C)C(=O)N[C@@H](CCC(N)=O)C(=O)N[C@@H](CC(C)C)C(=O)N[C@@H](CO)C(=O)N1)C(=O)N[C@@H](CO)C(=O)N[C@@H](CCCNC(=N)N)C(N)=O [SP-62] (H-[NMeY]ADAIFTASYR[R8]VLAQLS[S5]RKALQDA[Nle]SR-NH2; staple 12-19)

EC50: 10 to 25 nM
SMILES: CCCC[C@H](NC(=O)[C@@H](NC(=O)[C@H](CC(=O)O)NC(=O)C(C)(C)NC(=O)[C@H](CC(C)C)NC(=O)[C@H](C)NC(=O)[C@H](CCCCN)NC(=O)[C@H](CCCNC(=N)N)NC(=O)[C@]1(C)CCCC=CCCCCCC[C@@](C)(NC(=O)[C@H](CCCNC(=N)N)NC(=O)[C@H](Cc2ccc(O)cc2)NC(=O)[C@H](CO)NC(=O)C(C)(C)NC(=O)[C@@H](NC(=O)[C@H](Cc2ccccc2)NC(=O)[C@@H](NC(=O)[C@H](C)NC(=O)[C@H](CC(=O)O)NC(=O)[C@H](C)NC(=O)[C@H](Cc2ccc(O)cc2)NC)[C@@H](C)CC)[C@@H](C)O)C(=O)N[C@@H](C(C)C)C(=O)N[C@@H](CC(C)C)C(=O)N[C@@H](C)C(=O)N[C@@H](CCC(N)=O)C(=O)N[C@@H](CC(C)C)C(=O)N[C@@H](CO)C(=O)N1)[C@@H](C)CC)C(=O)N[C@@H](CO)C(=O)N[C@@H](CCCNC(=N)N)C(N)=O [SP-67] (H-[NMeY]ADAIFT[Aib]SYR[R8]VLAQLS[S5]RKAL[Aib]DI[Nle]SR-NH2; staple 12-19)

EC50: 25 to 50 nM
SMILES: CCCC[C@H](NC(=O)[C@@H](NC(=O)[C@H](CC(=O)O)NC(=O)[C@H](CCC(N)=O)NC(=O)[C@H](CC(C)C)NC(=O)[C@H](C)NC(=O)[C@H](CCCCN)NC(=O)[C@H](CCCNC(=N)N)NC(=O)[C@]1(C)CCCC=CCCCCCC[C@@](C)(NC(=O)[C@H](CCCNC(=N)N)NC(=O)[C@H](Cc2ccc(O)cc2)NC(=O)[C@H](CO)NC(=O)[C@H](C)NC(=O)[C@@H](NC(=O)[C@H](Cc2ccccc2)NC(=O)[C@@H](NC(=O)[C@H](C)NC(=O)[C@H](CC(=O)O)NC(=O)[C@H](C)NC(=O)[C@H](Cc2ccc(O)cc2)NC)[C@@H](C)CC)[C@@H](C)O)C(=O)N[C@@H](C(C)C)C(=O)N[C@@H](CC(C)C)C(=O)N[C@@H](C)C(=O)N[C@@H](CCC(N)=O)C(=O)N[C@@H](CC(C)C)C(=O)N[C@@H](CO)C(=O)N1)[C@@H](C)CC)C(=O)N[C@@H](CO)C(N)=O [SP-60] (H-[NMeY]ADAIFTASYR[R8]VLAQLS[S5]RKALQDI[Nle]S-NH2; staple 12-19)

Further lines, the molecule ahead of its results:

SMILES: CCCC[C@H](NC(=O)[C@@H](NC(=O)[C@H](CC(=O)O)NC(=O)[C@H](CCC(N)=O)NC(=O)[C@H](CC(C)C)NC(=O)[C@H](C)NC(=O)[C@H](CCCCN)NC(=O)[C@H](CCCNC(=N)N)NC(=O)[C@H](C)NC(=O)[C@H](CO)NC(=O)[C@H](CC(C)C)NC(=O)[C@H](CCC(N)=O)NC(=O)[C@H](C)NC(=O)[C@H](CC(C)C)NC(=O)[C@@H](NC(=O)[C@H](CCCCN)NC(=O)[C@H](CCCNC(=N)N)NC(=O)[C@H](Cc1ccc(O)cc1)NC(=O)[C@H](CO)NC(=O)[C@H](C)NC(=O)[C@@H](NC(=O)[C@H](Cc1ccccc1)NC(=O)[C@@H](NC(=O)[C@H](C)NC(=O)[C@H](CC(=O)O)NC(=O)[C@H](C)NC(=O)[C@@H](N)Cc1ccc(O)cc1)[C@@H](C)CC)[C@@H](C)O)C(C)C)[C@@H](C)CC)C(=O)N[C@@H](CO)C(=O)N[C@@H](CCCNC(=N)N)C(N)=O [SP-36] (H-YADAIFTASYRKVLAQLSARKALQDI[Nle]SR-NH2)
EC50: 1 to 10 nM

SMILES: CCCC[C@H](NC(=O)[C@@H](NC(=O)[C@H](CC(=O)O)NC(=O)[C@H](CCC(N)=O)NC(=O)[C@H](CC(C)C)NC(=O)[C@H](C)NC(=O)[C@H](CCCCN)NC(=O)[C@H](CCCNC(=N)N)NC(=O)[C@H](C)NC(=O)[C@H](CO)NC(=O)[C@H](CC(C)C)NC(=O)[C@]1(C)CCCC=CCCC[C@](C)(NC(=O)[C@H](CCCNC(=N)N)NC(=O)[C@H](Cc2ccc(O)cc2)NC(=O)[C@H](CO)NC(=O)[C@H](C)NC(=O)[C@@H](NC(=O)[C@H](Cc2ccccc2)NC(=O)[C@@H](NC(=O)[C@H](C)NC(=O)[C@H](CC(=O)O)NC(=O)[C@H](C)NC(=O)[C@H](Cc2ccc(O)cc2)NC)[C@@H](C)CC)[C@@H](C)O)C(=O)N[C@@H](C(C)C)C(=O)N[C@@H](CC(C)C)C(=O)N[C@@H](C)C(=O)N1)[C@@H](C)CC)C(=O)N[C@@H](CO)C(=O)N[C@@H](CCCNC(=N)N)C(N)=O [SP-11] (H-[NMeY]ADAIFTASYR[S5]VLA[S5]LSARKALQDI[Nle]SR-NH2; staple 12-16)
EC50: 10 to 25 nM

SMILES: CCCC[C@H](NC(=O)[C@@H](NC(=O)[C@H](CC(=O)O)NC(=O)[C@H](CCC(N)=O)NC(=O)[C@H](CC(C)C)NC(=O)[C@]1(C)CCCC=CCCCCCC[C@@](C)(NC(=O)[C@H](CC(C)C)NC(=O)[C@@H](NC(=O)[C@H](CCCCN)NC(=O)[C@H](CCCNC(=N)N)NC(=O)[C@H](Cc2ccc(O)cc2)NC(=O)[C@H](CO)NC(=O)[C@H](C)NC(=O)[C@@H](NC(=O)[C@H](Cc2ccccc2)NC(=O)[C@@H](NC(=O)[C@H](C)NC(=O)[C@H](CC(=O)O)NC(=O)[C@H](C)NC(=O)[C@H](Cc2ccc(O)cc2)NC)[C@@H](C)CC)[C@@H](C)O)C(C)C)C(=O)N[C@@H](CCC(N)=O)C(=O)N[C@@H](CC(C)C)C(=O)N[C@@H](CO)C(=O)N[C@@H](C)C(=O)N[C@@H](CCCNC(=N)N)C(=O)N[C@@H](CCCCN)C(=O)N1)[C@@H](C)CC)C(=O)N[C@@H](CO)C(=O)N[C@@H](CCCNC(=N)N)C(N)=O [SP-27] (H-[NMeY]ADAIFTASYRKVL[R8]QLSARK[S5]LQDI[Nle]SR-NH2; staple 15-22)
EC50: 1 to 10 nM

Source: patent US20180371044A1, “PEPTIDOMIMETIC MACROCYCLES” (Aileron Therapeutics, Inc., priority 2015, published 2018)
